Calls of active or inactive are those of the source. The calls are words filed in the database; no cut-off is given here.
Key:
[1] = biological target: T1, Nuclear factor erythroid 2-related factor 2 (Mus musculus) (UniProt Q60795); assay: Activation of NRF2 in C57BL/6 mouse bone marrow cells assessed as increase in HO-1 level exposed to 21% oxygen at 2 uM incubated for 4 hrs by Western blot analysis; type: cell-based; conditions: Bone marrow cell, filed as activator
T1 sequence (whole entry): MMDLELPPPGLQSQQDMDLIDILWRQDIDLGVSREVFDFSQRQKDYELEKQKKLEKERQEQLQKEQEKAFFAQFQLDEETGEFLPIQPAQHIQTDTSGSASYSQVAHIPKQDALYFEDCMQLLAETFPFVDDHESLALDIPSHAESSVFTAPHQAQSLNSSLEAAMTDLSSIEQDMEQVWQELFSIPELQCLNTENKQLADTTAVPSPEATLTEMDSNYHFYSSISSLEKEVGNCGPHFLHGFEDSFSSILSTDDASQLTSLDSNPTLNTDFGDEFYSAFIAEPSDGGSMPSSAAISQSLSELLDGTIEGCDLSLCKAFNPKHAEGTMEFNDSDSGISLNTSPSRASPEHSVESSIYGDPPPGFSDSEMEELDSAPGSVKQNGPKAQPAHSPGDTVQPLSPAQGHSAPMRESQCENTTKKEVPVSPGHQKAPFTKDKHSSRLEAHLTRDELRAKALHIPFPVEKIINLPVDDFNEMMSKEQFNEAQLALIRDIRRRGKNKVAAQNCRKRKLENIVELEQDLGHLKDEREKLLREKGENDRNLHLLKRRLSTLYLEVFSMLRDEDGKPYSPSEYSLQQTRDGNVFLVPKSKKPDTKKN

[2] = biological target: T1, Nuclear factor erythroid 2-related factor 2 (Mus musculus); assay: Activation of NRF2 in C57BL/6 mouse bone marrow cells assessed as increase in Hmox1 gene expression exposed to 1% oxygen at 2 uM incubated for 4 hrs by qRT-PCR analysis; type: cell-based; conditions: Bone marrow cell
Bone marrow cell = assay: Upregulation of Nfe2l2 gene expression in C57BL/6 mouse bone marrow cells exposed to 4% oxygen at 2 uM incubated for 4 hrs by qRT-PCR analysis; type: functional, cell-based
[3] = biological target: T1, Nuclear factor erythroid 2-related factor 2 (Mus musculus); assay: Induction of NRF2 stabilization in C57BL/6 mouse bone marrow cells exposed to 21% oxygen at 2 uM incubated for 1 hr; type: cell-based; conditions: Bone marrow cell
[4] = biological target: T1, Nuclear factor erythroid 2-related factor 2 (Mus musculus); assay: Induction of NRF2 stabilization in C57BL/6 mouse bone marrow cells exposed to 4% oxygen at 2 uM incubated for 1 hr; type: cell-based; conditions: Bone marrow cell
[5] = biological target: T1, Nuclear factor erythroid 2-related factor 2 (Mus musculus); assay: Activation of NRF2 in C57BL/6 mouse bone marrow cells exposed to 21% oxygen at 2 uM incubated for 1 hr; type: cell-based; conditions: Bone marrow cell
[6] = biological target: T1, Nuclear factor erythroid 2-related factor 2 (Mus musculus); assay: Activation of NRF2 in C57BL/6 mouse bone marrow cells assessed as fold increase in HO-1 level exposed to 1% oxygen at 2 uM incubated for 4 hrs by Western blot analysis relative to control; type: cell-based; conditions: Bone marrow cell, filed as activator
[7] = biological target: T1, Nuclear factor erythroid 2-related factor 2 (Mus musculus); assay: Activation of NRF2 in C57BL/6 mouse bone marrow cells assessed as nuclear translocation of NRF2 exposed to 1% oxygen at 2 uM incubated for 1 hr by Western blot analysis; type: cell-based; conditions: Bone marrow cell
[8] = biological target: T1, Nuclear factor erythroid 2-related factor 2 (Mus musculus); assay: Activation of NRF2 in C57BL/6 mouse bone marrow cells assessed as increase in GCLM level exposed to 1% oxygen at 2 uM incubated for 7 hrs by Western blot analysis; type: cell-based; conditions: Bone marrow cell
[9] = biological target: T1, Nuclear factor erythroid 2-related factor 2 (Mus musculus); assay: Activation of NRF2 in C57BL/6 mouse bone marrow cells assessed as increase in Gclm gene expression exposed to 1% oxygen at 2 uM incubated for 4 hrs by qRT-PCR analysis; type: cell-based; conditions: Bone marrow cell
[10] = biological target: T1, Nuclear factor erythroid 2-related factor 2 (Mus musculus); assay: Activation of NRF2 in C57BL/6 mouse bone marrow cells assessed as increase in Hmox1 gene expression exposed to 4% oxygen at 2 uM incubated for 4 hrs by qRT-PCR analysis; type: cell-based; conditions: Bone marrow cell
[11] = biological target: T1, Nuclear factor erythroid 2-related factor 2 (Mus musculus); assay: Activation of NRF2 in C57BL/6 mouse bone marrow cells assessed as increase in GCLM level exposed to 21% oxygen at 2 uM incubated for 7 hrs by Western blot analysis; type: cell-based; conditions: Bone marrow cell
[12] = biological target: T1, Nuclear factor erythroid 2-related factor 2 (Mus musculus); assay: Activation of NRF2 in C57BL/6 mouse bone marrow cells assessed as increase in Gclm gene expression exposed to 4% oxygen at 2 uM incubated for 4 hrs by qRT-PCR analysis; type: cell-based; conditions: Bone marrow cell
[13] = biological target: T1, Nuclear factor erythroid 2-related factor 2 (Mus musculus); assay: Induction of NRF2 stabilization in C57BL/6 mouse bone marrow cells exposed to 1% oxygen at 2 uM incubated for 1 hr; type: cell-based; conditions: Bone marrow cell
[14] = biological target: T1, Nuclear factor erythroid 2-related factor 2 (Mus musculus); assay: Activation of NRF2 in C57BL/6 mouse bone marrow cells exposed to 1% oxygen at 2 uM incubated for 1 hr; type: cell-based; conditions: Bone marrow cell
[15] = biological target: T1, Nuclear factor erythroid 2-related factor 2 (Mus musculus); assay: Activation of NRF2 in C57BL/6 mouse bone marrow cells assessed as nuclear translocation of NRF2 exposed to 1% oxygen at 2 uM incubated for 1 hr by IHC analysis; type: cell-based; conditions: Bone marrow cell, filed as activator
[16] = biological target: T1, Nuclear factor erythroid 2-related factor 2 (Mus musculus); assay: Activation of NRF2 in C57BL/6 mouse bone marrow cells exposed to 4% oxygen at 2 uM incubated for 1 hr; type: cell-based; conditions: Bone marrow cell
[17] = biological target: T1, Nuclear factor erythroid 2-related factor 2 (Mus musculus); assay: Activation of NRF2 in C57BL/6 mouse bone marrow cells assessed as fold increase in HO-1 level exposed to hypoxic condition at 2 uM incubated for 4 hrs by Western blot analysis; type: cell-based; conditions: Bone marrow cell, filed as activator

SMILES	Activity [1]	Activity ([2]; filed as activator)	Activity (Bone marrow cell)	Activity [3]	Activity [4]	Activity [5]	Activity ([7]; filed as activator)	Activity ([8]; filed as activator)	Activity ([9]; filed as activator)	Activity ([10]; filed as activator)	Activity ([11]; filed as activator)	Activity ([12]; filed as activator)	Activity [13]	Activity ([14]; filed as activator)	Activity ([16]; filed as activator)	also measured
CCCCCCCC/C=C(\CCCCCCCC(=O)O)[N+](=O)[O-]	Active	Active	Active	Active	Active	inactive	Active	Active	Active	Active	Active	Active	Active	Active	–	fold change (FC) [6]: 1.8
CCCCCCCC/C(=C\CCCCCCCC(=O)O)[N+](=O)[O-]	Active	Active	inactive	Active	Active	inactive	Active	Active	Active	Active	Active	Active	Active	Active	–	Activity [15]: Active
CCCCCCCCC(CCCCCCCCC(=O)O)[N+](=O)[O-] (configuration not stated)	–	–	inactive	Active	Active	inactive	–	–	–	–	–	–	Active	–	–	Activity [2]: inactive; Activity [7]: inactive; Activity [8]: inactive; Activity [9]: inactive; Activity [10]: inactive; Activity [11]: inactive; Activity [12]: inactive; Activity [16]: inactive; Activity [14]: inactive
CCCCC/C=C\C/C(=C\CCCCCCCC(=O)O)[N+](=O)[O-]	–	Active; Compound Exhibited Upregulation That Was Dependent On Oxygen Levels Or Specific Target Genes	inactive	Active	Active	inactive	–	–	Active; Compound Exhibited Upregulation That Was Dependent On Oxygen Levels Or Specific Target Genes	Active; Compound Exhibited Upregulation That Was Dependent On Oxygen Levels Or Specific Target Genes	Active	Active; Compound Exhibited Upregulation That Was Dependent On Oxygen Levels Or Specific Target Genes	Active	–	Active	Activity [17]: Active
CCCCCCC=C/C=C(\CCCCCCCC(=O)O)[N+](=O)[O-]	–	Active; Compound Exhibited Upregulation That Was Dependent On Oxygen Levels Or Specific Target Genes	inactive	Active	Active	inactive	–	–	Active; Compound Exhibited Upregulation That Was Dependent On Oxygen Levels Or Specific Target Genes	Active; Compound Exhibited Upregulation That Was Dependent On Oxygen Levels Or Specific Target Genes	–	Active; Compound Exhibited Upregulation That Was Dependent On Oxygen Levels Or Specific Target Genes	Active	Active	Active	–

Reference: ChEMBL document CHEMBL6109182, “Regio- and Stereoselective Synthesis of Nitro-fatty Acids as NRF2 Pathway Activators Working under Ambient or Hypoxic Conditions” (J Med Chem, 2025)
